Experimental data reported in US12661355B2, “Compounds and methods for inducing UCP1 expression” (The Regents of the University of California, priority 2020, dated 2026).
Entries after “also recorded” stand apart in the source; their conditions may differ.

Columns and labels:
brown adipocytes = test: Lipolysis assay in brown adipocytes; format: cell-based, mouse; details: immortalized brown adipocytes, 10 μM overnight
Method: Lipolysis was assessed in cultured cells using medium collected over 3 h with the Adipolysis assay kit (AB100, Millipore), according to the manufacturer's protocol.

[1] = biological target: T1, PKA subunits (C-α and RII-β) (Mus musculus, UniProt P05132+P31324); test: CETSA in brown adipocytes, PKA subunits; format: binding; details: 10 μM for 8 h
T1 construct: endogenous in cells; host or cells: immortalized mouse brown adipocytes
Method: CETSA assays were performed according to known methods. Briefly, differentiated brown adipocytes (one 10 cm dish per treatment) were treated with vehicle or compounds, trypsinized, counted, and re-suspended in approximately 450 μl PBS containing protease inhibitors (volumes were adjusted to have the same number of cells in each treatment). For each sample, 18 μl was distributed into each of 7 PCR tubes. Samples were heated using a thermocycler with a temperature gradient (iCycler, Biorad) for 3 min, followed by 3 min at room temperature, and then snap-frozen in liquid N2. After two freeze-thaw cycles, samples were centrifuged at 20,000 g for 15 min at 4° C., and the supernatants were transferred to another set of tubes. Proteins were analyzed by immunoblotting.
The PKA tetramer consists of two catalytic and two regulatory subunits. In the mouse, these are catalytic subunits C-α and C-β, and regulatory subunits RI and RII, each with α and β isoforms (RI-α, RI-β, RII-α, RII-β). […]
The potential interaction of Z160 with PKA subunits and AKAPs was assessed first by identifying which PKA subunits and AKAP isoforms are normally present in BAT. […] To perform the CETSA assays, cultured brown adipocytes were incubated with 10 μM Z160 for 8 h, after which the thermal shift was analyzed by Western blot.

NRVM = test: Hypertrophic gene expression in neonatal rat ventricular myocytes; format: cell-based; details: 10 μM Z160 concomitantly with 60 μM isoproterenol or 50 μM phenylephrine, 2 days
Method: (§1) Rat H9c2 cells were grown in DMEM supplemented with 10% FBS, 25 mM glucose, 1 mM pyruvate, and 2 mM glutamine Neonatal rat ventricular myocytes (NRVM) were isolated and cultured as previously described. Briefly, 2-4 day old rats were sacrificed and myocytes and fibroblasts were isolated and separated using a Percoll density gradient. Following isolation, NRVMs were plated on gelatin-coated plates in DMEM containing 10% FBS, 25 mM glucose, 1 mM pyruvate, and 2 mM glutamine The next day, FBS was replaced by 1× insulin-transferrin-selenium supplement and the cells were treated with vehicle or 10 μM Z160 for 2 days, with or without 60 μM isoproterenol or 50 μM phenylephrine.
RNA levels were measured by qPCR according to known methods. Briefly, RNA was extracted with TRIzol (Invitrogen) and reverse transcribed with iScript (Bio-Rad). Real-time PCR analysis was performed with a CFX Connect (Bio-Rad).

AKAP13 = biological target: T2, AKAP13 (Rattus norvegicus, UniProt F1M3G7); test: DARTS in H9c2 cell extracts, AKAP13; format: binding; details: 20 μM, 1 h
T2 construct: DARTS assay in H9c2 cell extracts treated with vehicle or 20 μM Z160 for 1 h; endogenous in cells; host or cells: rat H9c2 cells
T2 sequence (F1M3G7 whole entry): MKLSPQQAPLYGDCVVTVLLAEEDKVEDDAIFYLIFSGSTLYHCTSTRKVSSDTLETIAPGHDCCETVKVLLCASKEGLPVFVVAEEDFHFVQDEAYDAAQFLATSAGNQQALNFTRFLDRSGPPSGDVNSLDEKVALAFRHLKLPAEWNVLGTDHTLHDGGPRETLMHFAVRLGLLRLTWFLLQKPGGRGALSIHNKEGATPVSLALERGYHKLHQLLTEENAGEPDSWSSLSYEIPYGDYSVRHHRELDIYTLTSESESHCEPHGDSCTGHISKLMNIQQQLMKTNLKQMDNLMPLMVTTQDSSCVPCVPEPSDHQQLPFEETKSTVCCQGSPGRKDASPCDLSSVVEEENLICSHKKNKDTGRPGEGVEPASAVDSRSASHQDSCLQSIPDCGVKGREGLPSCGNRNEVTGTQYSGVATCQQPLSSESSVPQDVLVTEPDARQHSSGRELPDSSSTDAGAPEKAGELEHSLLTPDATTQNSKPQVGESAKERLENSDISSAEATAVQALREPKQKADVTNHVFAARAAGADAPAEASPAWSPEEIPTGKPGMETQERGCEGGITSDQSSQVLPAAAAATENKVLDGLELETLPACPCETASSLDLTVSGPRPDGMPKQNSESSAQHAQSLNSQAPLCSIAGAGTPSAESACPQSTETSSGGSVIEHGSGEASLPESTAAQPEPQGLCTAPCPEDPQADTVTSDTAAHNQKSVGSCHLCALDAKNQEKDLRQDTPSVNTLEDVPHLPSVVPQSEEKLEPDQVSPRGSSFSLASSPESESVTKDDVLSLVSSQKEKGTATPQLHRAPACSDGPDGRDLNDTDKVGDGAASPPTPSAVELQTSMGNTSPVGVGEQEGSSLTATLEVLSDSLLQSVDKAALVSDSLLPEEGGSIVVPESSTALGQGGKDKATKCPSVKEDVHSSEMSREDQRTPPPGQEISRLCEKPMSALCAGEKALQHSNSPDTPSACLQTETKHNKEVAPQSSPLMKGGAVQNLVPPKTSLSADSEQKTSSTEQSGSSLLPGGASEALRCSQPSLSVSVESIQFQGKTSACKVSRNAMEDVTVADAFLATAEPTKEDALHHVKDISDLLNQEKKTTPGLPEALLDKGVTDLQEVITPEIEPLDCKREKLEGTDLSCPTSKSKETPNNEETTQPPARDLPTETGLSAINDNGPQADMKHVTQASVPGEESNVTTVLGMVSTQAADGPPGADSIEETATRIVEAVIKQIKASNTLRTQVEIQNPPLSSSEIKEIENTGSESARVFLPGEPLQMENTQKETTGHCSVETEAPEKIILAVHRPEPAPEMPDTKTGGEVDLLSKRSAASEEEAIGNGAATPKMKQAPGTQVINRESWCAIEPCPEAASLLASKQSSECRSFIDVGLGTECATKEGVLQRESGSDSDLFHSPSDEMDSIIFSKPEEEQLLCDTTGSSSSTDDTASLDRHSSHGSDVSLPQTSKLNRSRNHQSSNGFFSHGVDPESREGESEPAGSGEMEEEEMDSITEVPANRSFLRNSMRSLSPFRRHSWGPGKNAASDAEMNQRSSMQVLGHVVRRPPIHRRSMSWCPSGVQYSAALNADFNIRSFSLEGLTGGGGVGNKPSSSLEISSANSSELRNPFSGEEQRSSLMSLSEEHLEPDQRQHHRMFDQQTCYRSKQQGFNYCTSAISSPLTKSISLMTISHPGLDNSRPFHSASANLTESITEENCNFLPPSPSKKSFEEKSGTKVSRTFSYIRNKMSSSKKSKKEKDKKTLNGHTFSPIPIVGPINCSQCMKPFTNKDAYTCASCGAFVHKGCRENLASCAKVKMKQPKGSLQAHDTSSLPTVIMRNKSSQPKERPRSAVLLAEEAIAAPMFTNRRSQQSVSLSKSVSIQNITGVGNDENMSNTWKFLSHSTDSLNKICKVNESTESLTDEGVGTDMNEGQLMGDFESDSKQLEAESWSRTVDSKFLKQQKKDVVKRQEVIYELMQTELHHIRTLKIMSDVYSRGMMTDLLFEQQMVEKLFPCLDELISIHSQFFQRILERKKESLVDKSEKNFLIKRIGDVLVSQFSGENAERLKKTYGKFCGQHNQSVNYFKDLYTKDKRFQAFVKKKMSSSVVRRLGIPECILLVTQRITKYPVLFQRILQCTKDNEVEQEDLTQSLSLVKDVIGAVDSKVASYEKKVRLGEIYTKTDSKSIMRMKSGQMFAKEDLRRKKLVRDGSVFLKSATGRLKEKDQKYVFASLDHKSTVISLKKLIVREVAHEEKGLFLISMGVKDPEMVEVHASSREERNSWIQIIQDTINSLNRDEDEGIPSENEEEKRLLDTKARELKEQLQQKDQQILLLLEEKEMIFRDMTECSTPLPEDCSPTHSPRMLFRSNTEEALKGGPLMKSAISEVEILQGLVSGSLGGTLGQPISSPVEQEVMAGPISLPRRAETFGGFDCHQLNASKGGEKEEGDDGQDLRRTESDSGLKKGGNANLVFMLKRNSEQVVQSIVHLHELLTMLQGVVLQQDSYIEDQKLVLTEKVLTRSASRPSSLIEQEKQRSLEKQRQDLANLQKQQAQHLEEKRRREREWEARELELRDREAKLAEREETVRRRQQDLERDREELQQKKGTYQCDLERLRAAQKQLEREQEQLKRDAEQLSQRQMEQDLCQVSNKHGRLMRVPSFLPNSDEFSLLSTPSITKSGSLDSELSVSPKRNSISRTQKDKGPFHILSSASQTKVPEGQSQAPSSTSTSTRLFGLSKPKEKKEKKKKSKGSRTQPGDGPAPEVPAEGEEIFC
Method: as §1
ARTS assays were performed according to known methods. Briefly, BAT or cells within a 10 cm dish were lysed with 600 μl M-PER buffer containing protease and phosphatase inhibitors. Debris was pelleted by centrifugation at 18,000 g for 10 min at 4° C., and the lysates were harvested and supplemented with TNC buffer (50 mM Tris-HCl, 50 mM NaCl, 10 mM CaCl2). The lysates were split into two tubes and treated with either vehicle or 20 μM Z160 for 1 h at room temperature. For experiment with BAT, 100 μg of lysate was incubated with different Z160 concentrations. […]

COc1ccc(NC(=O)CSc2nc3ccccc3c(=O)[nH]2)c(OC)c1 [Z160]
lipolysis (brown adipocytes): induced lipolysis | denaturation (thermal shift) of PKA subunits C-α and RII-β [1]: did not show differences in denaturation | effect on hypertrophic gene expression profile (Nppa, Nppb, Pln) induced by isoproterenol or phenylephrine (NRVM): prevented the induction of a hypertrophic gene expression profile; also recorded: reverses the effect of ISO and PE | pronase susceptibility of AKAP13 (AKAP13): altered pronase susceptibility; also recorded: change of AKAP13 conformation
